The values that follow come from ChEMBL document CHEMBL5352431 (Eur J Med Chem, 2022).

Broadly, the Ki is a dissociation constant, usually derived from enzyme kinetics or from competition with a known ligand.

SMILES strings stand for the structures. “And” between values parts separate entries of the source, which are not always exact repeats. Equal entries are not always repeated.

The target of experiment [1] is T1, Melatonin receptor type 1B (Homo sapiens, UniProt P49286).
T1 sequence (P49286 whole entry): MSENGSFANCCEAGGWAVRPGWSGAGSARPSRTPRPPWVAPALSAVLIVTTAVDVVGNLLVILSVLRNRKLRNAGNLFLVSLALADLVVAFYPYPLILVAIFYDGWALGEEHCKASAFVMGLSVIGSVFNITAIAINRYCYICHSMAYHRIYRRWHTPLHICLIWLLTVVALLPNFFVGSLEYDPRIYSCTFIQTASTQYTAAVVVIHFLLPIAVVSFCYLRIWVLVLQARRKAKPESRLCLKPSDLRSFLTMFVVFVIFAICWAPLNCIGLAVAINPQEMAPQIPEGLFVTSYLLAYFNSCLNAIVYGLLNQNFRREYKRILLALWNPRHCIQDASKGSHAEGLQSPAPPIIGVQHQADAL
Put plainly: Displacement of 2-[125I]iodoMLT from human MT2 receptor expressed in mouse NIH3T3 cells incubated for 90 mins by Cheng-Prusoff equation analysis. The class given is cell-based.

Experiment [2] has as its target T1, Melatonin receptor type 1B. Put plainly: Displacement of 2-[125I]iodoMLT from human MT2 receptor stably expressed in CHO cells by Cheng-Prusoff equation analysis. The class given is cell-based.
Experiment [3] addresses T2, Melatonin receptor type 1A (Homo sapiens, UniProt P48039). Put plainly: Displacement of 2-[125I]iodoMLT from human MT1 receptor expressed in mouse NIH3T3 cells incubated for 90 mins by Cheng-Prusoff equation analysis. Format: cell-based.
Experiment [4] concerns the target T2, Melatonin receptor type 1A. Put plainly: Displacement of 2-[125I]iodoMLT from human MT1 receptor stably expressed in CHO cells by Cheng-Prusoff equation analysis. Format: cell-based.
The target in experiment [5] is T2, Melatonin receptor type 1A. Put plainly: Displacement of 2-[125I]iodoMLT from human MT1 receptor stably expressed in CHO cells incubated for 60 mins by Cheng-Prusoff equation analysis. The class given is cell-based.
For experiment [6], the target named is T2, Melatonin receptor type 1A. The experiment can be described thus: Displacement of 2-[125I]iodoMLT from recombinant human MT1 receptor expressed in African green monkey COS-7 cells incubated for 1.5 hrs by Cheng-Prusoff equation analysis. The class given is cell-based.
Experiment [7] addresses T1, Melatonin receptor type 1B. The experiment can be described thus: Binding affinity to MT2 receptor (unknown origin) assessed as inhibition constant.
Experiment [8] has as its target T2, Melatonin receptor type 1A. The experiment can be described thus: Binding affinity to MT1 receptor (unknown origin) assessed as inhibition constant.

T2 sequence (P48039 whole entry): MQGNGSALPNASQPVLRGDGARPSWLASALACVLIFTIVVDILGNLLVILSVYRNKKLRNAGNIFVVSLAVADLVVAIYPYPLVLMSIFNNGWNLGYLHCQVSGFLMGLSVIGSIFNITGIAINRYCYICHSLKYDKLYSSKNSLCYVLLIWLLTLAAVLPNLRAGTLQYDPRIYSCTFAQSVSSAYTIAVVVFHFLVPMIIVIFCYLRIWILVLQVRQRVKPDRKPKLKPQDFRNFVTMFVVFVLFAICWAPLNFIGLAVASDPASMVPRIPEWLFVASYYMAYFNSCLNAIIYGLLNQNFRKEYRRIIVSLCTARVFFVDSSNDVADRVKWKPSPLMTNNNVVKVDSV

`COc1ccc2c(c1)c(CCNC(C)=O)c(-c1cccc3ccccc13)n2C`: the Ki is 0.309 nM and 0.575 nM and 0.126 nM in experiment [1]; 0.302 nM and 0.38 nM and 0.288 nM in experiment [2]; 12 nM and 33.9 nM and 12.9 nM in experiment [3]; 40.7 nM and 97.7 nM and 33.1 nM in experiment [4].
`COc1ccc2[nH]c(Oc3ccccc3)c(CCNC(C)=O)c2c1`: the figures for the Ki in experiment [1] and in experiment [3] were 2.95 nM and 11.5 nM, respectively.
The matching figures for `COc1ccc2[nH]c(-c3ccc(-c4ccccc4)cc3)c(CCNC(C)=O)c2c1`: 5.01 nM and 16.2 nM.
As to `COc1ccc2[nH]c(-c3cccc4ccccc34)c(CCNC(C)=O)c2c1`, the results for the Ki in experiment [1] and in experiment [3] were 0.191 nM and 15.5 nM, respectively.
The matching figures for `COc1ccc2[nH]c(-c3ccc4ccccc4c3)c(CCNC(C)=O)c2c1`: 1.1 nM and 36.3 nM.
Consider `COc1cccc(N(CCNC(C)=O)c2cccc(CO)c2)c1`, for which the Ki in experiment [5] was greater than 100 nM.
Consider `COc1ccc2[nH]c(Cc3ccccc3)c(CCNC(C)=O)c2c1`, for which the Ki in experiment [6] is 31.6 nM.
Regarding `COc1ccc2[nH]c(-c3cccnc3)c(CCNC(C)=O)c2c1`, the Ki in experiment [1] was 0.0603 nM; in experiment [3], 0.17 nM.
For `COc1ccc2[nH]c(Sc3ccccc3)c(CCNC(C)=O)c2c1` the same measures were 0.0631 nM and 0.977 nM.
The matching figures for `COc1ccc2[nH]c(-c3ccccc3)c(CCNC(C)=O)c2c1`: 0.038 nM and 0.0219 nM.
The matching figures for `COc1ccc2[nH]c(-c3cccc4[nH]ccc34)c(CCNC(C)=O)c2c1`: 0.295 nM and 14.8 nM.
For the compound `COc1ccc2[nH]c(-c3cccc4ncccc34)c(CCNC(C)=O)c2c1`, the Ki in experiment [1] was 2.69 nM; in experiment [3], 14.8 nM.
With `CC(=O)NCCc1c(-c2cccc(O)c2)oc2ccc3c(c12)CCCO3`, the Ki in experiment [7] was 0.21 nM; in experiment [8] it was 0.87 nM.
